Converted amounts (≈) assume the structure as drawn. Read-outs that look alike come from different tables or passages of the source.
What was measured:
Mtb H37Rv ATCC27294 = assay: Minimum inhibitory concentrations testing against Mtb; format: cell-based, Mycobacterium tuberculosis; settings: for MIC: Mycobacterium tuberculosis; for Relative Therapeutic Index (RTI), Mtb H37RV a / Relative Therapeutic Index (RTI), Mtb H37RV b: minimal lethal dose / MIC, 800 μg mL-1 used for >400; for Relative Therapeutic Index (RTI), Mtb H37RV a: 7H9/ADC/Tw; for Relative Therapeutic Index (RTI), Mtb H37RV b: GAST/Fe
HEK293 cells = assay: Cell proliferation assay (MTS); format: cell-based, human; settings: for LD50 values, HEK293: MTS cell proliferation assay, 24 hrs, highest concentration 400 µg mL-1; for Minimal Lethal Dose, HEK 293: serial 2-fold dilutions (Table S6)
Procedure: (§1) In sterile 96-well plate, each well was seeded with ∼1x10^5 cells. The cells are then grown confluent overnight in 100 μl DMEM with 10% FBS. The medium is replenished with DMEM with 2% FBS and added vehicle control or test substance the next day. For test substance in methanol, stock was added to 25 μl of DMEM with 2% FBS or PBS and placed in the laminar flow hood to let the methanol evaporate (about 1-3 hrs). Once the methanol has evaporated, DMEM with 2% FBS was added to final volume of 100 μl of desired test concentration. […] Cells are grown for additional 24 hrs. The cell viability was determined by using Promega CellTiter 96^© AQueous One Solution Cell Proliferation Assay (3-(4,5-dimethylthiazol-2-yl)-5-(3-carboxymethoxyphenyl)-2-(4-sulfophenyl)-2H-tetrazolium, inner salt; MTS) System following the manufacture protocol.

HepG2 cells = assay: Cell proliferation assay (MTS); format: cell-based, human; settings: for LD50 values, HepG2: MTS cell proliferation assay, 24 hrs, highest concentration 400 µg mL-1; for Minimal Lethal Dose, HepG2: serial 2-fold dilutions (Table S6)
Procedure: as §1

Raji cells = assay: Cell proliferation assay (MTS); format: cell-based, human; settings: 24 hrs
Procedure: as §1

B. subtilis EC1524 = assay: Micro-broth dilution and drop plate antimicrobial susceptibility test; format: cell-based, Bacillus subtilis; settings: for IC50 / MBC / MIC: Bacillus subtilis; for Relative Therapeutic Index (RTI), B. subtilis EC1524: minimal lethal dose / MIC, 800 μg mL-1 used for >400
Procedure: (§2) In a sterile 96-well plate, serial dilutions were made with the test substance to final volume of 50 μl. Inoculum was then prepared in Mueller-Hinton broth to 0.5 McFarland and diluted before adding 50 μl to the well to make ∼1x10^5 CFU/ml. The culture plate was incubated at 35 °C for 20-24 hrs. A positive growth control and sterility wells were also prepared along with the culture wells. Absorbance at OD600 was taken using BMG Labtech SPECTROstar Omega spectrophotometer. MIC is determined by the lowest concentration without growth. IC50 is determined from plotting a dose-response curve, see Data Analysis below. To determine the MBC, using a multi-channel pipette, 1 μl of culture broth was taken from the same 96-well microdilution growth plate and carefully inoculated on surface of MH agar plate. The plate is then incubated for additional 20 hrs. at 35 °C. The MBC value is the lowest concentration without observed growth on the agar.

B. cereus ATCC11778 = assay: as above; format: cell-based, Bacillus cereus; settings: for IC50 / MBC / MIC: Bacillus cereus; for Relative Therapeutic Index (RTI), B. cereus NRRL 11778: minimal lethal dose / MIC, 800 μg mL-1 used for >400
Procedure: as §2

E. coli ATCC25922 = assay: as above; format: cell-based; settings: Escherichia coli
Procedure: as §2

P. aeruginosa ATCC27853 = assay: as above; format: cell-based; settings: Pseudomonas aeruginosa
Procedure: as §2

S. aureus ATCC29219 = assay: as above; format: cell-based; settings: Staphylococcus aureus
Procedure: as §2

[1] = EC1524, read-out: Minimal Inhibitory Concentration, B. subtilis EC1524
[2] = ATCC 11778 / NRRL11778, read-out: Minimal Inhibitory Concentration, B. cereus NRRL 11778
[3] = 168 h, read-out: 1-week MIC in 7H9/ADC/Tw
[4] = 168 h, read-out: 1-week MIC in GAST/Fe
[5] = 168 h, read-out: Minimal Inhibitory Concentration, Mtb H37RV a
[6] = 168 h, read-out: Minimal Inhibitory Concentration, Mtb H37RV b

| SMILES | LD50 values, HEK293 (HEK293 cells) | LD50 values, HepG2 (HepG2 cells) | LD50 values, Raji (Raji cells) [µg/mL] | IC50 (B. subtilis EC1524; EC1524) [µg/mL] | MBC (B. subtilis EC1524; EC1524) [µg/mL] | MIC (B. subtilis EC1524; EC1524) [µg/mL] | MIC (B. subtilis EC1524; [1]) [µg/mL] | Relative Therapeutic Index (RTI), B. subtilis EC1524 (B. subtilis EC1524) | IC50 (B. cereus ATCC11778; ATCC11778) [µg/mL] | MBC (B. cereus ATCC11778; ATCC11778) [µg/mL] | MIC (B. cereus ATCC11778; ATCC11778) [µg/mL] | MIC (B. cereus ATCC11778; [2]) [µg/mL] | Relative Therapeutic Index (RTI), B. cereus NRRL 11778 (B. cereus ATCC11778) | IC50 (E. coli ATCC25922) [µg/mL] | MBC (E. coli ATCC25922) [µg/mL] | MIC (E. coli ATCC25922) [µg/mL] | IC50 (P. aeruginosa ATCC27853) [µg/mL] | MBC (P. aeruginosa ATCC27853) [µg/mL] | MIC (P. aeruginosa ATCC27853) [µg/mL] | IC50 (S. aureus ATCC29219) [µg/mL] | further results |
| --- | --- | --- | --- | --- | --- | --- | --- | --- | --- | --- | --- | --- | --- | --- | --- | --- | --- | --- | --- | --- | --- |
| CC(C)(C)OC(=O)N[C@H]1[C@H](O[C@H]2O[C@H](CO)[C@@H](O)[C@H](O)[C@H]2NC(=O)OC(C)(C)C)O[C@H](C[C@@H](O)[C@H]2O[C@@H](n3ccc(=O)[nH]c3=O)[C@H](O)[C@@H]2O)[C@H](O)[C@@H]1O [TUN-Boc,Boc, 10',2"-Di-N-Boc-α-D-glucosamine-(1”-11')-tunicamyl uracil] | N/A (N/A = not available. No or low cytotoxicity observed at highest, saturating concentration tested (400 µg mL-1)) | N/A (N/A = not available. No or low cytotoxicity observed at highest, saturating concentration tested (400 µg mL-1)) | 608.9 ± 394.9 | – | – | – | – | – | – | – | – | – | – | – | – | – | – | – | – | – | MIC (Mtb H37Rv ATCC27294; 168 h, Mtb H37Rv, minimal growth medium, read-out: 1-week MIC in GAST/Fe): > 60 µg/mL; MIC (Mtb H37Rv ATCC27294; 168 h, Mtb H37Rv, rich 7H9-based growth medium, read-out: 1-week MIC in 7H9/ADC/Tw): > 60 µg/mL |
| CCCCCCCCCCCC(=O)N[C@H]1[C@H](O[C@H]2O[C@H](CO)[C@@H](O)[C@H](O)[C@H]2NC(=O)CCCCCCCCCCC)O[C@H](C[C@@H](O)[C@H]2O[C@@H](n3ccc(=O)[nH]c3=O)[C@H](O)[C@@H]2O)[C@H](O)[C@@H]1O [TUN-12,12, Di-N-dodecanoyl-tunicamycin] | N/A (N/A = not available. No or low cytotoxicity observed at highest, saturating concentration tested (400 µg mL-1)) | N/A (N/A = not available. No or low cytotoxicity observed at highest, saturating concentration tested (400 µg mL-1)) | 81.29 ± 30.20 | 58.9 (≈ 63.3 µM) | > 200 | 83 ± 29 (≈ 89.1 µM) | 100 (≈ 107 µM) | 8 | 1.4 ± 0.47 (≈ 1.5 µM) | > 200 | 42 ± 14 (≈ 45.1 µM) | 50 (≈ 53.7 µM) | 16 | 182 (≈ 195 µM) | > 400 | 330 ± 120 (≈ 354 µM) | 81.7 (≈ 87.8 µM) | > 400 | 170 ± 6 (≈ 183 µM) | 61.9 (≈ 66.5 µM) | MBC (S. aureus ATCC29219): > 400 µg/mL; MIC (S. aureus ATCC29219): 170 ± 60 µg/mL (≈ 183 µM); MIC (Mtb H37Rv ATCC27294; [3]): 18.7 ± 5.4 µg/mL; MIC (Mtb H37Rv ATCC27294; [4]): 6.9 ± 6.2 µg/mL; MIC (Mtb H37Rv ATCC27294; [5]): 18.7 µg/mL; MIC (Mtb H37Rv ATCC27294; [6]): 6.9 µg/mL; Relative Therapeutic Index (RTI), Mtb H37RV a (Mtb H37Rv ATCC27294): 43; Relative Therapeutic Index (RTI), Mtb H37RV b (Mtb H37Rv ATCC27294): 116; Minimal Lethal Dose, HEK 293 (HEK293 cells): > 400 µg/mL; Minimal Lethal Dose, HepG2 (HepG2 cells): > 400 µg/mL |
| CCCCCCC(=O)N[C@H]1[C@H](O[C@H]2O[C@H](CO)[C@@H](O)[C@H](O)[C@H]2NC(=O)CCCCCC)O[C@H](C[C@@H](O)[C@H]2O[C@@H](n3ccc(=O)[nH]c3=O)[C@H](O)[C@@H]2O)[C@H](O)[C@@H]1O [TUN-7,7, Di-N-heptanoyl tunicamycin] | N/A (N/A = not available. No or low cytotoxicity observed at highest, saturating concentration tested (400 µg mL-1)) | N/A (N/A = not available. No or low cytotoxicity observed at highest, saturating concentration tested (400 µg mL-1)) | 431.10 ± 241.81 | 3.12 ± 1.04 (≈ 3.95 µM) | > 50 | 5.2 ± 1.8 (≈ 6.58 µM) | 6.25 (≈ 7.9 µM) | 128 | 13.3 (≈ 16.9 µM) | > 200 | 83 ± 29 (≈ 105 µM) | 100 (≈ 126 µM) | 8 | 131 (≈ 166 µM) | > 400 | 330 ± 120 (≈ 417 µM) | 62.4 (≈ 79 µM) | > 400 | 83 ± 29 (≈ 105 µM) | 80.5 (≈ 102 µM) | MBC (S. aureus ATCC29219): > 400 µg/mL; MIC (S. aureus ATCC29219): 170 ± 60 µg/mL (≈ 215 µM); MIC (Mtb H37Rv ATCC27294; [3]): 5 ± 3.5 µg/mL; MIC (Mtb H37Rv ATCC27294; [4]): 1.6 ± 1.8 µg/mL; MIC (Mtb H37Rv ATCC27294; [5]): 5 µg/mL; MIC (Mtb H37Rv ATCC27294; [6]): 1.6 µg/mL; Relative Therapeutic Index (RTI), Mtb H37RV a (Mtb H37Rv ATCC27294): 160; Relative Therapeutic Index (RTI), Mtb H37RV b (Mtb H37Rv ATCC27294): 500; Minimal Lethal Dose, HEK 293 (HEK293 cells): > 400 µg/mL; Minimal Lethal Dose, HepG2 (HepG2 cells): > 400 µg/mL |
| NNC(=O)c1ccncc1 [Isoniazid, reference compound] | – | – | – | – | – | – | – | – | – | – | – | – | – | – | – | – | – | – | – | – | MIC (Mtb H37Rv ATCC27294; Mtb H37Rv, tested from 0.024 - 50 μM, read-out: MIC of positive control): 0.2 ± 0.1 µM |

Reference: PMC6218659, “Structures of DPAGT1 Explain Glycosylation Disease Mechanisms and Advance TB Antibiotic Design” (Cell, 2018)
